Measured values from patent US11827611B2, “Ubiquitin-specific peptidase 24 inhibitor, medicinal composition including the same and method of delaying or reversing multidrug resistance in cancers using the same” (NATIONAL CHENG KUNG UNIVERSITY, priority 2020, dated 2023).
Structures can show the parent of a compound that is named as a salt. Where two headings read alike, the source gives them in different places.

How the values were obtained:
[1] = test system: USP24 substrates, Bax and BRD7, in A549 cells; test: protein levels of USP24 substrates in A549 cells treated with USP24 inhibitor candidates (Western blotting); format: cell-based, human; settings: for levels of Bax, BRD7 / level of p300: A549 cells; for levels of Bax, BRD7: FIG. 4B; for level of p300: FIG. 4D
From the text: FIG. 4B illustrates a bar diagram showing the relative protein levels of USP24 substrates, Bax and BRD7, in A549 cells treated with various USP24 inhibitor candidates according to several embodiments of the present invention.
FIG. 4D illustrates the result of Western blotting assay with anti-Ubiquitin antibodies for evaluating the ubiquitination of p300 in A549 cells with or without USP24 overexpression or USP24 inhibitor according to an embodiment of the present invention.
Human lung adenocarcinoma epithelial cell line A549 and other lung cancer cell lines were cultured with RPMI 1640 medium (Invitrogen) containing 10% fetal bovine serum (FBS), 100 μg/ml streptomycin and 100 U/ml penicillin G sodium. All cells were incubated at 37° C. with 5% CO2. For transfecting plasmid, Polyjet (SignaGen) was used according to manufacturer's instructions.

[2] = test system: lung cancer; test: lung cancer migratory ability; format: cell-based; settings: data not shown
[3] = test system: T24 cells; test: taxol concentration inside cells evaluated by LC/MS/MS; format: cell-based, human
From the text: FIG. 2H illustrates the images of the taxol concentration inside cells evaluated by LC/MS/MS with or without USP24 knockdown according to an embodiment of the present invention.
FIG. 4J illustrates the concentration of taxol inside cells treated with USP24 inhibitor evaluated by LC/MS/MS according to an embodiment of the present invention.
FIG. 6B illustrates the profiles of the taxol concentration in the taxol-resistant T24 cells treated with USP24-i101 (the upper panel) or DMSO (lower panel) detected by LC/MS/MS analysis according to an embodiment of the present invention.

[4] = test system: HCT116OX5; test: cytotoxicity of HCT116OX5 cells treated with or without USP24 inhibitor; format: cell-based; settings: HCT116OX5, FIG. 4F(c)
From the text: (§1) FIG. 4E(a) to 4F(c) illustrate the results of the cytotoxicity of T24 cells [FIGS. 4E(a) and 4E(b)], TMZR [FIG. 4F(a)], Hone-1 CPT-R [FIG. 4F(b)] and HCT116OX5 [FIG. 4F(c)] treated with or without USP24 inhibitor according to several embodiments of the present invention.

[5] = test system: T24; test: tumor size of T24 injected into SCID mice treated with taxol and USP24 inhibitor; format: in vivo; settings: combined with taxol
From the text: (§2) FIGS. 4K(a) and 4K(b) illustrate the results of the tumor size of T24 injected into SCID mice treated with taxol and USP24 inhibitor in the indicated time according to an embodiment of the present invention.
The experiments related with animals were approved by the Institutional Animal Care and Use Committee (IACUC) at National Cheng Kung University (NCKU). These transgenic mice were generated in National Laboratory Animal Center (NLAC, Taiwan, Tainan). After breeding, two-month-old transgenic mice were used to study lung cancer development. Caging was provided suitable space and accommodates appropriate population densities that allow animals' sufficient freedom of movement. To provide amounts of food that must be for transgenic mice normal growth, and maintenance of normal body weight. These transgenic mice were accessed to fresh and uncontaminated drinking water. Transgenic mice were also observed and cared at least for two to three times per week. All methods involving animals were performed in accordance with the relevant guidelines and regulations.

[6] = test system: T24 cells; test: cytotoxicity of T24 cells in the treatment of taxol with or without USP24 inhibitor; format: cell-based, human; settings: FIG. 4E
From the text: as §1
FIG. 6A(a) to 6A(b) illustrate the results of the cytotoxicity of T24 cells in the treatment of taxol with or without USP24 inhibitor treatment according to an embodiment of the present invention.

[7] = target: USP24 (Homo sapiens, UniProt Q9UPU5); test: in vitro enzyme assay of pure recombinant USP24 protein with biotin-tetra-ub as the substrate; format: biochemical; settings: for catalytic activity of recombinant purified USP24 proteins: biotin-tetra-ub substrate, FIG. 4C / 6C
Chain of USP24 (Q9UPU5 whole entry): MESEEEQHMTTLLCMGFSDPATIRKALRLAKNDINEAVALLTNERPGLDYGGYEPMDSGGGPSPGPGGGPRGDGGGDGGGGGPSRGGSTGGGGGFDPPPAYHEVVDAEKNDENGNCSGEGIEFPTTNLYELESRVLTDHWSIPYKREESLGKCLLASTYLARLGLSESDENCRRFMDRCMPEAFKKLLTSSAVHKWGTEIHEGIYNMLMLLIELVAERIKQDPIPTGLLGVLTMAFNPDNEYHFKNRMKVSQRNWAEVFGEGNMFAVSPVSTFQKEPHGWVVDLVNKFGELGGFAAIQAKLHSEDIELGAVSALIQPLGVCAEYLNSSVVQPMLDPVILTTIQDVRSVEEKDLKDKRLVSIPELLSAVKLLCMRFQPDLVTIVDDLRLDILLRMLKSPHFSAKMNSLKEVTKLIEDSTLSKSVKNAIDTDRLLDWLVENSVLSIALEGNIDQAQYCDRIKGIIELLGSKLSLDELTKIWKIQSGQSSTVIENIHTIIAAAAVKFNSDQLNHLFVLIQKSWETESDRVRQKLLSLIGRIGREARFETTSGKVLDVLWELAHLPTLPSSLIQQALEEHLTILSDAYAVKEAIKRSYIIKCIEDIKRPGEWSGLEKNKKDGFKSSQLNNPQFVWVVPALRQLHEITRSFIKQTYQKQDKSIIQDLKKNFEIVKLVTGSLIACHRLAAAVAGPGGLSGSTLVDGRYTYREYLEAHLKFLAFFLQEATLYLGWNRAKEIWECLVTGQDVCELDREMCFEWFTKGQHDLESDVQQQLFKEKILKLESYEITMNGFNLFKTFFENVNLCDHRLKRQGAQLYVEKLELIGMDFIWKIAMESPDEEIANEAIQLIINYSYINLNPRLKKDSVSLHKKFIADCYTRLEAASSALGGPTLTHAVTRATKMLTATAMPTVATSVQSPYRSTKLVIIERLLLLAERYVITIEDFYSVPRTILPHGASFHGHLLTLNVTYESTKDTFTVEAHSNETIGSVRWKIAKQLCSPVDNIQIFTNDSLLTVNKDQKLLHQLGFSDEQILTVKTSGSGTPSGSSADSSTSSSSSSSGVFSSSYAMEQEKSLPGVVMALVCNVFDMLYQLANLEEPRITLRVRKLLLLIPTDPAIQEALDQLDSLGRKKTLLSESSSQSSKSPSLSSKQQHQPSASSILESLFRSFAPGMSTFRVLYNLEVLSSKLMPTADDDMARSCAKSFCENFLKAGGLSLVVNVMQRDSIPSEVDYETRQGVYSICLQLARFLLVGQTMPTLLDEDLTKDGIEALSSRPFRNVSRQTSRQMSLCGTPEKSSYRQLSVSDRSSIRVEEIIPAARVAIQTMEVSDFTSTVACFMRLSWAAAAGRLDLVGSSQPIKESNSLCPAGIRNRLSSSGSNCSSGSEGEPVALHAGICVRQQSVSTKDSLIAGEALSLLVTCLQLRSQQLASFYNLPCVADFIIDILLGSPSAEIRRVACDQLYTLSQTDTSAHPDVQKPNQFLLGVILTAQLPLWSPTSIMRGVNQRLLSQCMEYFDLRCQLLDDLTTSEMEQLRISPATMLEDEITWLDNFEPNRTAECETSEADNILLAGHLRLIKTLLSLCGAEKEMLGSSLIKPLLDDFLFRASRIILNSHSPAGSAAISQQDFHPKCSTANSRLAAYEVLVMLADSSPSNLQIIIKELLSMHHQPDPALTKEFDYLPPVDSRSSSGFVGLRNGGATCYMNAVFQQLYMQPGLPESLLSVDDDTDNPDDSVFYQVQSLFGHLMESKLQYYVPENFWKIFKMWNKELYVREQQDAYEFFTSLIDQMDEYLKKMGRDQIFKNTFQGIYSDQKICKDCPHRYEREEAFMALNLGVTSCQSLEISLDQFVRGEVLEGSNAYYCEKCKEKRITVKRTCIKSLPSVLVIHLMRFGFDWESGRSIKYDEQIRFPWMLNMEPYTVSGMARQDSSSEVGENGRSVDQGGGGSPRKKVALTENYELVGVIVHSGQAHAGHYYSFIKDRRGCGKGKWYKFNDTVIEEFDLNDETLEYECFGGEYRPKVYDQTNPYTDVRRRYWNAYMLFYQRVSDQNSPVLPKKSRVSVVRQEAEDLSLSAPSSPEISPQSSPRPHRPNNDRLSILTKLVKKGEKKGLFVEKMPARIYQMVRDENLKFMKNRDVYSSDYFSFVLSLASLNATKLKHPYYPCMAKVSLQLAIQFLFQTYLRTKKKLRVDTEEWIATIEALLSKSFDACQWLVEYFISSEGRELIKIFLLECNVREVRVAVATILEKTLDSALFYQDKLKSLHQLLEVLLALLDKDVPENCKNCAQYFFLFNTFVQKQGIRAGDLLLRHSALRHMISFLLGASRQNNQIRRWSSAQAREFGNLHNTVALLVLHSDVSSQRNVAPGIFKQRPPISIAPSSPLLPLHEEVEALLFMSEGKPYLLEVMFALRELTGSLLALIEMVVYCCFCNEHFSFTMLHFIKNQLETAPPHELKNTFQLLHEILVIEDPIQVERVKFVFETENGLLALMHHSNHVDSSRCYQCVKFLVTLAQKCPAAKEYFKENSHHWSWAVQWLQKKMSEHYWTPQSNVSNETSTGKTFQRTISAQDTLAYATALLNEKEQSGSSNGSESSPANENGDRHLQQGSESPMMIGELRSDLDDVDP
From the text: FIG. 4C illustrates the result of in vitro enzyme assay of the enzyme activity of USP24 pure recombinant USP24 protein with biotin-tetra-ub as the substrate in the absence or presence of USP24 inhibitor according to several embodiments of the present invention.
FIG. 6C illustrates the result of in vitro enzyme assay of the enzyme activity of USP24 pure recombinant USP24 protein with biotin-tetra-ub as the substrate in the absence or presence of USP24 inhibitor according to several embodiments of the present invention.

[8] = target: USP7 (Homo sapiens, UniProt Q93009); test: catalytic activity of USP7; format: biochemical; settings: data not shown
Chain of USP7 (Q93009 whole entry, species assumed): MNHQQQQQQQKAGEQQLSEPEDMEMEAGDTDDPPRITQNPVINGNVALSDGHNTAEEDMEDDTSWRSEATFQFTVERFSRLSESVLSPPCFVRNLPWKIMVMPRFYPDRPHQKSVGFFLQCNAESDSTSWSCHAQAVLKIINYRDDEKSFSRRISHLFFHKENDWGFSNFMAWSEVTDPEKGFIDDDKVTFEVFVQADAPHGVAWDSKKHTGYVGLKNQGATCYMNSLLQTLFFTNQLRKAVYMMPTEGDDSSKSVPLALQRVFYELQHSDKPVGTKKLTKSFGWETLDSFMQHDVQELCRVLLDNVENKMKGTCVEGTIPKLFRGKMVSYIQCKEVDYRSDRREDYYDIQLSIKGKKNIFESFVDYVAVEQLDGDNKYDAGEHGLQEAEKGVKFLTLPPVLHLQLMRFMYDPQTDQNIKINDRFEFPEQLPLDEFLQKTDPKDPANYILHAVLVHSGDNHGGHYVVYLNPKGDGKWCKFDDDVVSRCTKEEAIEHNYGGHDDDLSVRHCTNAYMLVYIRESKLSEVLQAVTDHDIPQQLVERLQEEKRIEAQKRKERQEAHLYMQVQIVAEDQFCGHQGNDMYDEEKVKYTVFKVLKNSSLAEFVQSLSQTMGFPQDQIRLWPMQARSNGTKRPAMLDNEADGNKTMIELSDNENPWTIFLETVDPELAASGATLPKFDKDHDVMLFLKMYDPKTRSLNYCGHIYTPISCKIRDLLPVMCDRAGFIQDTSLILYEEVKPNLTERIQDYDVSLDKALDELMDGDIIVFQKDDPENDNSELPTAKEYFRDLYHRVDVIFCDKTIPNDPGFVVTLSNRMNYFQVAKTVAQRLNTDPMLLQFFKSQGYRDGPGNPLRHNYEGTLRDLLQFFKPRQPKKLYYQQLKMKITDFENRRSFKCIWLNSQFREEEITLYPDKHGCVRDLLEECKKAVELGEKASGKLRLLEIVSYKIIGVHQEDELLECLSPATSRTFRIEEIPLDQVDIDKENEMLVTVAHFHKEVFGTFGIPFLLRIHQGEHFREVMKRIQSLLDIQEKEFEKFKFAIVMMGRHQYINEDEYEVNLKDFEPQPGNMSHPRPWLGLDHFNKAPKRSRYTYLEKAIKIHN

[9] = test system: T24 cells; test: sphere formation of T24 cells with or without USP24 inhibitor; format: cell-based, human
From the text: FIGS. 41(a) and 41(b) illustrate the results of the sphere formation of T24 cells with or without USP24 inhibitor treatment according to an embodiment of the present invention.

[10] = target: USP9x (Homo sapiens, UniProt Q93008); test: catalytic activity of USP9x; format: biochemical; settings: data not shown
[11] = target: USP10 (Homo sapiens, UniProt Q14694); test: catalytic activity of USP10; format: biochemical; settings: data not shown
Chain of USP10 (Q14694 whole entry): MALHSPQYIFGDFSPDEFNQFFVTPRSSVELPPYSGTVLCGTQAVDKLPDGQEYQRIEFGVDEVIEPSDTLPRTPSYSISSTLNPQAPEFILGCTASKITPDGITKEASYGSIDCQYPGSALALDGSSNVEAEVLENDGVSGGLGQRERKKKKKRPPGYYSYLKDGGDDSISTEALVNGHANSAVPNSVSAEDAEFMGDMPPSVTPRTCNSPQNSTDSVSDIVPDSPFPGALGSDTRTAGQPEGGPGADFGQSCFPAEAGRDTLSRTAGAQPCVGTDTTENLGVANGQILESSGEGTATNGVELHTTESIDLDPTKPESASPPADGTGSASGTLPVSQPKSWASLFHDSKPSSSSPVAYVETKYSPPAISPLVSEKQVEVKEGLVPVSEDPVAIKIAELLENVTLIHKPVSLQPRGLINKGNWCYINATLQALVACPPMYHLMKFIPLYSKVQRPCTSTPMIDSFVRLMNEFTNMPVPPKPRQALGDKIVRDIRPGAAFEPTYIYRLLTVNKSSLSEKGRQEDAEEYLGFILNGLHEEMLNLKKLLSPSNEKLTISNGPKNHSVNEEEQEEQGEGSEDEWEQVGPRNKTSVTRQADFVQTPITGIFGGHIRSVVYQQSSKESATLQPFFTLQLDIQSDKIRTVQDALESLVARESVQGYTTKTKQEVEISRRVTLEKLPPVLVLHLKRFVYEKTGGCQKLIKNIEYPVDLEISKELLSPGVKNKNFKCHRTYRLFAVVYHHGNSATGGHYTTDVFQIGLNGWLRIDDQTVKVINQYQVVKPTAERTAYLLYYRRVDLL

[12] = test system: Hone-1 CPT-R; test: cytotoxicity of Hone-1 CPT-R cells treated with or without USP24 inhibitor; format: cell-based; settings: FIG. 4F(b)
From the text: as §1

[13] = body weight of SCID mice treated with taxol and USP24 inhibitor; format: in vivo; settings: data not shown
From the text: as §2

[14] = test system: P-gp; test: Western blotting of the level and protein stability of P-gp in T24 treated with USP24 inhibitor; format: cell-based, human; settings: T24 cells
From the text: FIG. 4G(a) to 4H(b) illustrate the results of Western blotting assay of the level and protein stability of P-gp in T24 treated with USP24 inhibitor according to an embodiment of the present invention.

[15] = test system: TMZR; test: cytotoxicity of TMZR cells treated with or without USP24 inhibitor; format: cell-based; settings: FIG. 4F(a)
From the text: as §1

[16] = test system: EMT markers; test: EMT markers; format: cell-based
[17] = test system: HCC827-GR cells; test: cytotoxicity of HCC827-GR cells treated with or without USP24 inhibitor under various concentrations of Gefitinib
[18] = as above; settings: human

SMILES: CCC[C@H](NC(=O)/C(C#N)=C/c1cccc(Br)n1)c1ccccc1 [WP1130, reference compound]
- inhibition of the substrates of USP24 in lung cancer ([1]; FIG. 4C): could not inhibit

SMILES: CN1CCN(CCCCN2c3ccccc3Sc3ccc(C(=O)c4ccccc4)cc32)CC1 [NCI677397, (10-(4-(4-Methylpiperazin-1-yl)butyl)-10H-phenothiazin-2-yl)(phenyl)methanone oxalate]
- lung cancer migration [2]: could inhibit lung cancer migration
- concentration of taxol inside cells, with USP24 inhibitor ([3]; under 1000 nM taxol treatment): 321.36 nM
- drug resistance induced by oxaliplatin in colorectal cancer [4]: could significantly block the drug resistance
- cytotoxicity of taxol in the inhibition of cancer size and weight [5]: increased the cytotoxicity of taxol in the inhibition of cancer size and weight
- drug resistance induced by taxol in lung cancer [6]: could significantly block the drug resistance
- catalytic activity of recombinant purified USP24 proteins [7]: inhibited the catalytic activity
- specificity in blocking USP24 enzyme activity ([7]; versus USP7, USP9x, USP10): higher specificity
- catalytic activity of USP7 [8]: could not block
- levels of Bax, BRD7 [1]: could decrease the levels
- level of p300 [1]: could decrease the levels
- T24 sphere formation ability [9]: inhibit the T24 sphere formation ability
- catalytic activity of USP9x [10]: could not block
- catalytic activity of USP10 [11]: could not block
- drug resistance induced by Camptothecin in NPC [12]: could significantly block the drug resistance
- body weight [13]: did not affect the body weight
- level of P-gp [14]: could decrease the level of P-gp
- drug resistance induced by TMZ in brain cancer [15]: could significantly block the drug resistance
- EMT markers [16]: inhibited

SMILES: CC(=O)O[C@H]1C(=O)[C@@]2(C)[C@H]([C@H](OC(=O)c3ccccc3)[C@]3(O)C[C@H](OC(=O)[C@H](O)[C@@H](NC(=O)c4ccccc4)c4ccccc4)C(C)=C1C3(C)C)[C@]1(OC(C)=O)CO[C@@H]1C[C@@H]2O [taxol]
- accumulation of taxol inside the drug resistant cells, T24 ([3]; loss of USP24 (knockdown)): 272.7 nM/1000 nM
- accumulation of taxol inside the drug resistant cells, T24 ([3]; without USP24 knockdown): 110.8 nM/1000 nM

SMILES: CN1CCN(CCN2c3ccccc3Sc3ccc(C(=O)c4ccccc4)cc32)CC1 [USP24-i101, (10-(2-(4-Methylpiperazin-1-yl)ethyl)-10H-phenothiazin-2-yl)(phenyl)methanone]
- catalytic activity of recombinant purified USP24 proteins [7]: had comparably catalytic activity to NCI699397
- IC50 ([17]; read-out: IC50 of gefitinib in HCC827-GR with USP24-i101, 1 μg/mL of USP24-i101): 6.3 nM
- IC50 ([17]; read-out: IC50 of gefitinib in HCC827-GR with USP24-i101, 5 μg/mL of USP24-i101): 3.1 nM
- viability at 1 μg/mL [18]: 94%
- viability at 5 μg/mL [18]: 80.5%

SMILES: CCCCNS(=O)(=O)c1ccc(NC(=O)c2ccc3ccccc3c2O)c([N+](=O)[O-])c1 [NCI158067]
- lung cancer migration [2]: could inhibit lung cancer migration
- catalytic activity of recombinant purified USP24 proteins [7]: inhibited the catalytic activity
- catalytic activity of USP7 [8]: could inhibit
- levels of Bax, BRD7 [1]: could decrease the levels
- level of p300 [1]: could decrease the levels
- catalytic activity of USP10 [11]: could inhibit
